Results from patent publication US6521629B2, “Quinoline and quinazoline compounds useful in therapy” (Pfizer Inc., priority 1997, dated 2003).

Tested on: human prostate
Assay: Contractile responses of human prostate
Format: cell-based
Conditions: isolated human prostatic tissue strips; antagonism of (−)-noradrenaline contractions; single antagonist concentration incubated 2 hours
Protocol: Contractile Responses of Human Prostate
Prostatic tissue was cut into longitudinal strips (approximately 3×2×10 mm) and suspended in organ baths under a resting tension of 1 g in Krebs Ringer bicarbonate of the following composition (mM): NaCl (119), KCl (4.7), CaCl2 (2.5), KH2PO4 (1.2), MgSO4 (1.2), NaHCO3 (25), glucose (11), and gassed with 95% O2/5% CO2. The solution also contained 10 […]. Tissues were exposed to a sensitising dose of (−)-noradrenaline ([…]) and washed over a 45 minute period. Isometric contractions were obtained in response to cumulative additions of (−)-noradrenaline to obtain control curves in all tissues. A further curve was then generated in the presence or absence of antagonist (incubated for 2 hours). Antagonist affinity estimates (pA2) were determined using a single concentration of competing antagonist, pA2=−log [A]/(DR−1) where the dose ratio (DR), relative to corresponding controls, was produced by a single concentration of antagonist [A], assuming competitive antagonism and Schild regression close to unity.

SMILES: COc1cc2nc(N3CCCN(C(=O)N4CCOCC4)CC3)cc(N)c2c(-c2ncco2)c1OC [Example 28, 4-Amino-6,7-dimethoxy-2-[4-(4-morpholinecarbonyl)-1,4-diazepan-1-yl]-5-(oxazol-2-yl)quinoline]
- pA2 value: 9.2
